Consider one sequence from patent publication US5776892A, “Anti-inflammatory peptides” (Curative Health Services, Inc., priority 1994, dated 1998).

No end group written: not given here.

Series [1] concerns myeloperoxidase activity in mouse ear. Briefly: Myeloperoxidase activity in AA-treated mouse ear tissue (PMN marker). The series is classed as in vivo. The note with it: Table II. Here is the method: Myeloperoxidase activity in ear tissue was measured as a marker for the presence or absence of polymorphonuclear leukocytes (PMNs) (Barone et al., 1991, J. Neurosci. Res. 29:336-345). After measurement of ear thickness, ears were dissected from the mice and homogenized in 50 mM Tris-HCL, pH 7.4 at 4° C. to give a 10% (w/v) homogenate. Aliquots of the homogenate were used to determine the amount of myeloperoxidase activity present in the tissue using o-dianisidine (Sigma Chem Co., St. Louis Mo.) and hydrogen peroxide as substrates and monitoring chromophore generation at 460 nm (Barone et al., 1991, J. Neurosci. Res. 29:336-345).

For series [2], the system named is neutrophils. As to the kind of experiment: Neutrophil chemotaxis to f-Met-Leu-Phe (Neuroprobe chamber, fluorescence 530 nm). The series is classed as cell-based. The note with it: 15 min pre-exposure; read at 1 hr; FIG. 3. Here is the method: The ability of CT-112 (SEQ. ID NO: 1) to inhibit chemotaxis of neutrophils in response to a variety of agents was assessed using Neuroprobe chemotaxis chambers. For these assays, neutrophils were resuspended in Hank's balanced salt solution with Ca^2+ and Mg^2+ to give a 5×10^6 cells/ml suspension after the cells were labeled with 1',7'-bis(2-carboxyethyl)-5-(6)-carboxyfluorescein. The neutrophils were exposed to CT-112 (SEQ. ID NO: 1) for approximately 15 min prior to addition to the chemotaxis chambers. CT-112 (SEQ. ID NO: 1) was present in both the top and bottom of the chambers, and the chemoattractant, either f-Met-Leu-Phe, leukotriene B4 or interleukin-8, was added to the bottom of chamber. Cells which had migrated through the membrane were determined by fluorescence at 530 nm at 1 hr after initiation of the assay.

Series [3] relates to neutrophils. Format: cell-based. From the text: In addition, CT-112 (SEQ. ID NO: 1) was not cytotoxic to neutrophils, as determined by viability testing using trypan blue exclusion (FIG. 3).
Series [4] deals with carrageenan-induced peritonitis. As to the kind of experiment: Carrageenan-induced peritonitis, inflammatory cell influx in peritoneal lavage. Format: in vivo, mouse. The note with it: 60 mg/kg/day minipump. The procedure: (§1) Mice (C57BL/6UAF, females, 12 weeks old) were implanted with Alzet mini pumps set to deliver 60 mg CT-112/kg/day. Six days post-implantation, the mice were challenged with an intraperitoneal injection of 0.3 ml of carrageenan in PBS (10 mg/ml). The peritoneal cavity was lavaged with 15 ml of Hank's Balanced Salt Solution (Ca^2+ - and Mg^2+ -free) at 24, 48 and 72 hr post-challenge. The lavage fluid was centrifuged (500 g, 5 min), fixed with LeukoStat fixative and stained with LeukoStat staining solution. The slides were analyzed under a microscope for the different types of inflammatory cells, such as macrophages, lymphocytes and neutrophils. At the 48-hr time point, 5 control mice were also lavaged.

Series [5] has the same test system. Briefly: Carrageenan-induced peritonitis, LTB4 and PGE2 in peritoneal lavage fluid. The series is classed as in vivo, mouse. The note with it: 60 mg/kg/day; 24 hr post-challenge. The procedure: as §1, with “lavaged. In a separate study, the peritoneal lavage fluid was analyzed for total leukotriene B4 (LTB4) and prostaglandin E2 (PGE2) content at 24 hr post-challenge (Griswold et al., 1991, Biochem. Pharmacol. 42(4):825-831).” for “lavaged.”

Series [6] has as its system Salmonella. As to the kind of experiment: Salmonella reverse mutation assay. The note with it: 100-5,000 μg/ml, with or without rat liver microsomal enzyme activation. Format: cell-based. An excerpt: The mutagenic potential of CT-112 (SEQ. ID NO: 1) has been assessed.
Series [7] is described as follows: Acute toxicity in mice. The series is classed as in vivo, mouse. The note with it: intravenous 100, 500 or 1,000 mg/kg. The procedure: Acute toxicity of CT-112 (SEQ. ID NO: 1) in mice and rats was assessed. Mice were dosed by intravenous injection with CT-112 (SEQ. ID NO: 1) at 100, 500 or 1,000 mg/kg.
Series [8] concerns mouse bone marrow polychromatic erythrocyte. The note with it: in vivo.

For the sequence “TTSQVRPR [CT-112, octapeptide derived from platelet factor 4]”, the “Myeloperoxidase Activity” value in series [1] (0.05 mg/animal/day minipump) was 19.6 ± 15.6 μmole of chromophore formed/mi; in series [1] (0.1 mg/animal/day minipump), 17.0 ± 9.6 μmole of chromophore formed/mi; in series [1] (1.0 mg/animal/day minipump) it was 14.7 ± 13.3 μmole of chromophore formed/mi. Besides, in series [2], the “chemotactic migration of neutrophils to f-Met-Leu-Phe” value is on record as “effectively inhibited”. Also, the “cytotoxicity to neutrophils (trypan blue exclusion)” value in series [3] was “not cytotoxic”. For the same sequence, the figures for the “Absolute Cell Number, Lymphocytes” value in series [4] (24 hr post carrageenan), in series [4] (48 hr post carrageenan) and in series [4] (72 hr post carrageenan) were 16.9 ± 5.9, 12.5 ± 7.6 and 45.1 ± 42, respectively. Further, the “Absolute Cell Number, Macrophages” value in series [4] (24 hr post carrageenan) amounted to 19.5 ± 10; in series [4] (48 hr post carrageenan), 126 ± 43; in series [4] (72 hr post carrageenan) it was 255 ± 125. In addition, the entries for the “Absolute Cell Number, Neutrophils” value in series [4] (24 hr post carrageenan), in series [4] (48 hr post carrageenan) and in series [4] (72 hr post carrageenan) were 106 ± 29, 134 ± 77 and 48.4 ± 28, respectively. In series [5], the “LTB4 (pg in peritoneal lavage)” value is 16.8 ± 11.5 pg. In addition, the “PGE2 (pg in peritoneal lavage)” value in series [5] was 13.1 ± 6.9 pg. Also, the “number of revertants (histidine independent growth)” value in series [6] is on record as “did not cause an increase in the number of revertants”. In addition, the lesions at necropsy entry in series [7] is “No lesions were visible at necropsy”. Further, the “mean body weight and mean body weight gain vs control” value in series [7] is recorded as “no statistical differences”. In series [7] (one mouse at 500 and two at 1,000 mg/kg, day of treatment), the clinical effects result is “Minimal transient clinical effects (hypoactivity and hypersensitivity)”. Besides, in series [8], the micronuclei entry was “did not induce a significant increase in micronuclei”.
